Values of other authors in US20090214598A1, “Monovalent and polyvalent synthetic polysaccharide antigens for immunological intervention in disease” (Eli Lilly and Company, priority 2005, published 2009).

Conditions: literature reports (U.S. Pat. No. 4,395,399; Chedid 1983)

In the case of `CC(=O)N[C@H]1C(O)O[C@H](CO)[C@@H](O)[C@@H]1O[C@H](C)C(=O)N[C@@H](C)C(=O)N[C@H](CCC(=O)O)C(N)=O` (mixture of isomers) [MDP, muramyl dipeptide], the “inflammatory response as reported” value is given as “inflammatory in nature”.
